Data on two compounds can be found in paper PMC2883612 (Journal of nuclear medicine : official publication, Society …, 2009).

For data set [1] the following is noted: cited from earlier work.
A short description of data set [2]: Pharmacologic effects and safety tests in human subjects after PET. In kind it is in vivo.
The test system of data set [3] is TSPO. The note with it: rat model of neurodegeneration; cited from earlier work.
Data set [4] is described as follows: Plasma metabolite analysis and plasma input function. In kind it is in vivo. The note with it: human; for metabolites in plasma radioactivity: 30 min after injection; for plasma clearance time constant: monoexponential fitting from 20 to 60 min.
For data set [5], the target named is TSPO (Homo sapiens, UniProt P30536). The data set is described as follows: Brain PET with arterial input, compartmental modeling. The note with it: 1-tissue model, mean ± SD.
Data set [6] relates to TSPO. The note with it: in vivo; cited from earlier work.

TSPO (Homo sapiens, UniProt P30536), sequence (P30536 whole entry): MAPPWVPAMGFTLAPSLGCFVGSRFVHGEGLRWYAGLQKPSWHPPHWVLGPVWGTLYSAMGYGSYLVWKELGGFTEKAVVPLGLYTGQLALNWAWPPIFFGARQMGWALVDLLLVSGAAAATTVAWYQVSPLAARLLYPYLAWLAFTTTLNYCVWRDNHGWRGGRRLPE

Consider `CCN(CC)C(=O)Cc1c(-c2ccc(OC)cc2)nn2c(C)cc(C)nc12` [^11C-DPA-713, ^11C-N,N-diethyl-2-[2-(4-methoxyphenyl)-5,7-dimethyl-pyrazolo[1,5-a]pyrimidin-3-yl]-acetamide], for which the log partition coefficient (logP) in data set [1] was 2.4. For the same compound, in data set [2] (healthy human subjects), the “blood tests before and after the scan” value is recorded as “no abnormalities or interval changes”; the “side effects after the PET scans” value is listed as “No side effects were reported”. Also, the pharmacologic effects result in data set [2] (healthy human subjects, intravenous bolus) is reported as “No pharmacologic effects were noted”. The “12-lead ECGs” value in data set [2] (within 1 wk before and after injection) is “no abnormalities or interval changes”. For the same compound, the “specificity in discriminating between normal and lesioned brain, vs ^11C-R-PK11195” value with TSPO [3] is “greater specificity”. Besides, in data set [4], the “metabolites in plasma radioactivity” value is given as 20% and the “plasma clearance time constant” value amounted to 42 min.

As for `CCC(C)N(C)C(=O)c1cc2ccccc2c(-c2ccccc2Cl)n1` (stereo not shown) [^11C-R-PK11195], the K1 value on TSPO [5] (Caudate) is listed as 0.020 ± 0.012 (24.9); on TSPO [5] (Cerebellar cortex), 0.025 ± 0.016 (12.5); at TSPO [5] (Frontal), 0.023 ± 0.013 (14.6); on TSPO [5] (Pons), 0.019 ± 0.016 (23.1); on TSPO [5] (Putamen), 0.026 ± 0.015 (10.3); at TSPO [5] (Temporal) it was 0.016 ± 0.011 (22.0). Besides, the K1 value on TSPO [5] (Thalamus) is on record as 0.025 ± 0.013 (12.0). Further, the VT value at TSPO [5] (Caudate) is recorded as 0.25 ± 0.09 (23.1); on TSPO [5] (Cerebellar cortex), 0.32 ± 0.08 (11.9); on TSPO [5] (Frontal), 0.33 ± 0.10 (13.9); on TSPO [5] (Pons), 0.42 ± 0.13 (33.3); at TSPO [5] (Putamen), 0.34 ± 0.06 (9.5); on TSPO [5] (Temporal) it was 0.40 ± 0.08 (29.4). Also, the VT value on TSPO [5] (Thalamus) is reported as 0.42 ± 0.07 (11.9). In data set [4], the “metabolites in plasma radioactivity” value worked out at 40%. Also, the “plasma clearance time constant” value in data set [4] was 37 min. In the data set on TSPO [6], the “blocking effect on ^11C-DPA-713 brain uptake” value is on record as “potent blockade of brain uptake”.
